Data published in patent publication US12678438B2, “Treatment of cancer with CDK inhibitors” (THE TRUSTEES OF THE UNIVERSITY OF PENNSYLVANIA, priority 2019, dated 2026).

Columns and labels:
[1] = tested on: DHT-induced AR target genes; experiment: RNA-seq of DHT-stimulated VCaP and LNCaP cells; type: cell-based, human; settings: 10 nM DHT with 100 nM THZ1
Experimental: (§1) For AR signaling stimulation experiments, cells were plated in complete media at required confluency. After 24 h cells were washed with DPBS and cultured in RPMI/DMEM without Phenol Red (Invitrogen, 11835030) and 10% charcoal-dextran stripped FBS (Gemini BioProducts, 100-119) for 72 h. Cells were then stimulated with 10 nM DHT for the specific time points.
RNA-seq libraries were constructed using the TruSeq sample Prep Kit V2 (Illumina) according to the manufacturer's instructions. Briefly, 1 μg of purified RNA was poly-A selected and fragmented with fragmentation enzyme. […] The DNA library was quantitated using Qubit and normalized to 4 nM prior to pooling. […] Library pools were clustered and run on Nextseq500 platform (Illumina Inc.) with single-end reads of 75 bases.
Single-end sequencing reads were demultiplexed using Illumina bcl2fastq, quality checked using FASTQC (bioinformatics.babraham ac uk/projects/fastqc), and aligned to the GRCh37 (release 27) genome using the STAR v2.5.1 aligner, with default settings. The read statistics generated by STAR v2.5.1 was used to ensure that the aligned reads in all samples were over 90% of the total reads. […]
Genes differentially expressed between any two sets of treatment were determined using DESeq2 (bioconductor.org/packages/release/bioc/html/DESeq.html), a statistical tool that employs shrinkage estimates to compute fold changes. […]

AR-dependent PCa lines = experiment: Cell viability assay (Cell-Titer GLO), GI50; type: cell-based; settings: Homo sapiens; five AR-dependent PCa lines, 96 h incubation
Experimental: (§2) Cell viability assays were performed by seeding the cells in 96-well plates at 2500-10000 cells/well (optimum density for growth) in a total volume of 100 μL complete media. Serially diluted compounds/drugs in 100 μL media were added to the cells 24 h post seeding. Following 96 h incubation, cell viability was assessed by Cell-Titer GLO (Promega, PR G7571). The measurements were normalized and regression curves were fitted to calculate GI50 using GraphPad Prism software.

AR-negative cells = experiment: Cell viability assay (Cell-Titer GLO), GI50; type: cell-based; settings: Homo sapiens; three AR-negative cells, 96 h incubation
Experimental: as §2

AR target genes = experiment: qRT-PCR of DHT-induced AR target gene expression; type: cell-based, human; settings: LNCaP and VCaP, 100 nM THZ1
Experimental: as §1
Total RNA was isolated from cells using miRNeasy Mini Kit (Qiagen, 74106) and cDNA was synthesized from 1 μg total RNA using SuperScriptIV (Life Technologies, 18090200). qRT-PCR was performed using Fast SYBR Master Mix (Life Technologies, 4385617) or Taqman Fast Advance MMIX (Life Technologies, 4444964), and analyzed on QuantStudio3 (Applied Biosystems, USA). The target mRNA expression was quantified using ΔΔCt method, as normalized to GAPDH transcript levels. Primers were designed using Primer3 Input (version 0.4.0) (bioinfo.ut.ee/primer3-0.4.0/primer3) and synthesized by Integrated DNA Technologies.

CN(C)C/C=C/C(=O)Nc1ccc(C(=O)Nc2cccc(Nc3ncc(Cl)c(-c4c[nH]c5ccccc45)n3)c2)cc1 [THZ1]
genome-wide DHT-induced differentially expressed AR target genes [1]: completely reversed almost all | GI50 (AR-dependent PCa lines): 50 to 170 nM | GI50 (AR-negative cells): 400 to 600 nM | DHT-induced AR target gene expression (AR target genes): phenocopied the reduction in DHT-induced gene expression
